According to patent US20230263822A1, “MODULATION OF FACTOR 11 EXPRESSION” (Ionis Pharmaceuticals, Inc., priority 2008, published 2023):
Strand notation (5' to 3'): a small letter for the sugar, then the base; units joined by * are phosphorothioate-linked, units joined directly phosphodiester-linked; [ ] holds rarer units or linkages, { } end groups; capitals alone tell only the bases. e = 2'-O-(2-methoxyethyl) (MOE); [5mC] = 5-methylcytosine; d = 2'-deoxy (DNA)

How the values were obtained:
human Factor 11 mRNA = assay: Dose-dependent inhibition of human Factor 11 in HepG2 cells, electroporation 123.46-10,000 nM (Example 31); type: cell-based; details: for Percent inhibition of Factor 11 mRNA at 123.47 nM / Percent inhibition of Factor 11 mRNA at 370.37 nM / IC50: electroporation; for Percent inhibition of Factor 11 mRNA at 123.47 nM / Percent inhibition of Factor 11 mRNA at 370.37 nM / Percent inhibition of Factor 11 mRNA at 1,111.11 nM / Percent inhibition of Factor 11 mRNA at 3,333.33 nM / Percent inhibition of Factor 11 mRNA at 10,000.0 nM: approx. 16 hours, relative to untreated control cells; for Percent inhibition of Factor 11 mRNA at 1,111.11 nM: electroporation, 1,111.11 nM; for Percent inhibition of Factor 11 mRNA at 3,333.33 nM: electroporation, 3,333.33 nM; for Percent inhibition of Factor 11 mRNA at 10,000.0 nM: electroporation, 10,000.0 nM; for IC50: Factor 11 mRNA expression
Procedure, shortened: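 HepG2 cells were electroporated with antisense oligonucleotide at 123.46, 370.37, 1,111.11, 3,333.33 and 10,000 nM and harvested about 16 hours later. Factor 11 mRNA was quantified by qRT-PCR and normalised to total RNA (RIBOGREEN). Inhibition is expressed relative to untreated cells.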

[1] = Liver function, ALT, AST, bilirubin in cynomolgus monkeys (Example 45); type: in vivo; details: plasma, escalating dose regimen
Method: (§1) Groups, each consisting of two male and three female monkeys, were injected subcutaneously with ISIS 416838, ISIS 416850, ISIS 416858, ISIS 416864, or ISIS 417002 in escalating doses. Antisense oligonucleotide was administered to the monkeys at 5 mg/kg three times per a week for week 1; 5 mg/kg twice per week for weeks 2 and 3; 10 mg/kg three times per week for week 4; 10 mg/kg twice per week for weeks 5 and 6; 25 mg/kg three times per week for week 7; and 25 mg/kg twice per week for weeks 8, 9, 10, 11, and 12. One control group, consisting of two male and three female monkeys, was injected subcutaneously with PBS according to the same dosing regimen. An additional experimental group, consisting of two male and three female monkeys, was injected subcutaneously with ISIS 416850 in a chronic, lower dose regimen. Antisense oligonucleotide was administered to the monkeys at 5 mg/kg three times per week for week 1; 5 mg/kg twice per week for week 2 and 3; 10 mg/kg three times per week for week 4; and 10 mg/kg twice per week for weeks 5 to 12. Body weights were measured weekly. Blood samples were collected 14 days and 5 days before the start of treatment and subsequently once per week for Factor 11 protein activity analysis in plasma, fibrinogen measurement, PT and aPTT measurements, bleeding times, and measurement of various hematologic factors. On day 85, the monkeys were euthanized by exsanguination while under deep anesthesia, and organs harvested for further analysis.
The ISIS oligonucleotide, ISIS 416850, given with the chronic dose regimen is distinguished from the other oligonucleotides with an asterisk (*).

Factor 11 protein = Factor 11 protein in monkey plasma by sandwich ELISA (Example 45); type: in vivo, cynomolgus monkeys; details: escalating dose regimen; for Inhibition of Factor 11 protein relative to the PBS control: plasma ELISA
Method: as §1
Plasma samples from all monkey groups taken on different days were analyzed by a sandwich-style ELISA assay (Affinity Biologicals Inc.) using an affinity-purified polyclonal anti-Factor 11 antibody as the capture antibody and a peroxidase-conjugated polyclonal anti-Factor 11 antibody as the detecting antibody. Monkey plasma was diluted 1:50 for the assay. Peroxidase activity was expressed by incubation with the substrate o-phenylenediamine. The color produced was quantified using a microplate reader at 490 nm and was considered to be proportional to the concentration of Factor 11 in the samples.
The results are presented in Table 115, expressed as percentage reduction relative to that of the PBS control.

Substance | Percent inhibition of Factor 11 mRNA at 123.47 nM (human Factor 11 mRNA) | Percent inhibition of Factor 11 mRNA at 370.37 nM (human Factor 11 mRNA) | Percent inhibition of Factor 11 mRNA at 1,111.11 nM (human Factor 11 mRNA) | Percent inhibition of Factor 11 mRNA at 3,333.33 nM (human Factor 11 mRNA) | Percent inhibition of Factor 11 mRNA at 10,000.0 nM (human Factor 11 mRNA) | IC50 (human Factor 11 mRNA) | ALT ([1]; day 22) | AST ([1]; day 22) | Bilirubin ([1]; day 22) | ALT ([1]; day 43) | AST ([1]; day 43) | Bilirubin ([1]; day 43) | ALT ([1]; day 64) | AST ([1]; day 64) | Bilirubin ([1]; day 64) | ALT ([1]; day 85) | AST ([1]; day 85) | Bilirubin ([1]; day 85) | ALT ([1]; day −14) | AST ([1]; day −14) | other results
416856 (antisense GGCATTGGTGCACAGTTTCT; 5-10-5 gapmer, further chemistry not given here) [compound 416856] | 12% | 23% | 35% | 59% | 83% | 1.6 µM |  |  |  |  |  |  |  |  |  |  |  |  |  |  | 
416858 (antisense ACGGCATTGGTGCACAGTTT; 5-10-5 gapmer, further chemistry not given here) [compound 416858] | 0% | 27% | 36% | 64% | 70% | 2.2 µM |  |  |  |  |  |  |  |  |  |  |  |  |  |  | 
445522 (antisense eG*e[5mC]*eA*e[5mC]*eA*dG*dT*dT*dT*d[5mC]*dT*dG*dG*e[5mC]*eA*eG*eG*e[5mC]) [compound 445522] | 0% | 0% | 44% | 63% | 74% | 2.9 µM |  |  |  |  |  |  |  |  |  |  |  |  |  |  | 
445531 (antisense eG*eG*e[5mC]*eA*eT*dT*dG*dG*dT*dG*d[5mC]*dA*d[5mC]*eA*eG*eT*eT*eT) [compound 445531] | 8% | 16% | 52% | 61% | 77% | 1.8 µM |  |  |  |  |  |  |  |  |  |  |  |  |  |  | 
ISIS 416838: MOE gapmer, nucleobases 1018 to 1042 of SEQ ID NO: 1 (Table 6) (antisense GCAACCGGGATGATGAGTGC; MOE gapmer, wing and gap sizes not given here) |  |  |  |  |  |  | 36 IU/L | 39 IU/L | 0.17 mg/dL | 35 IU/L | 32 IU/L | 0.17 mg/dL | 40 IU/L | 33 IU/L | 0.15 mg/dL | 41 IU/L | 30 IU/L | 0.13 mg/dL | 76 IU/L | 139 IU/L | Bilirubin ([1]; day −14): 0.26 mg/dL; Inhibition of Factor 11 protein relative to the PBS control (Factor 11 protein; day 8): 3%; Inhibition of Factor 11 protein relative to the PBS control (Factor 11 protein; day 15): 4%; Inhibition of Factor 11 protein relative to the PBS control (Factor 11 protein; day 22): 5%; Inhibition of Factor 11 protein relative to the PBS control (Factor 11 protein; day 29): 8%; Inhibition of Factor 11 protein relative to the PBS control (Factor 11 protein; day 36): 11%; Inhibition of Factor 11 protein relative to the PBS control (Factor 11 protein; day 43): 5%; Inhibition of Factor 11 protein relative to the PBS control (Factor 11 protein; day 50): 8%; Inhibition of Factor 11 protein relative to the PBS control (Factor 11 protein; day 57): 10%; Inhibition of Factor 11 protein relative to the PBS control (Factor 11 protein; day 64): 11%; Inhibition of Factor 11 protein relative to the PBS control (Factor 11 protein; day 71): 12%; Inhibition of Factor 11 protein relative to the PBS control (Factor 11 protein; day 78): 10%; Inhibition of Factor 11 protein relative to the PBS control (Factor 11 protein; day 85): 10%; Inhibition of Factor 11 protein relative to the PBS control (Factor 11 protein; day −5): 0%; Inhibition of Factor 11 protein relative to the PBS control (Factor 11 protein; day −14): 0%
ISIS 416858: MOE gapmer, nucleobases 1275 to 1318 of SEQ ID NO: 1 (Table 8) (antisense ACGGCATTGGTGCACAGTTT; MOE gapmer, wing and gap sizes not given here) |  |  |  |  |  |  | 28 IU/L | 38 IU/L | 0.18 mg/dL | 36 IU/L | 39 IU/L | 0.14 mg/dL | 47 IU/L | 50 IU/L | 0.12 mg/dL | 50 IU/L | 49 IU/L | 0.14 mg/dL | 47 IU/L | 58 IU/L | Bilirubin ([1]; day −14): 0.27 mg/dL; Factor 11 protein levels in plasma (Factor 11 protein; cynomolgus monkeys, ELISA): time-dependent decrease in protein levels; Inhibition of Factor 11 protein relative to the PBS control (Factor 11 protein; day 8): 6%; Inhibition of Factor 11 protein relative to the PBS control (Factor 11 protein; day 15): 16%; Inhibition of Factor 11 protein relative to the PBS control (Factor 11 protein; day 22): 23%; Inhibition of Factor 11 protein relative to the PBS control (Factor 11 protein; day 29): 28%; Inhibition of Factor 11 protein relative to the PBS control (Factor 11 protein; day 36): 35%; Inhibition of Factor 11 protein relative to the PBS control (Factor 11 protein; day 43): 39%; Inhibition of Factor 11 protein relative to the PBS control (Factor 11 protein; day 50): 49%; Inhibition of Factor 11 protein relative to the PBS control (Factor 11 protein; day 57): 60%; Inhibition of Factor 11 protein relative to the PBS control (Factor 11 protein; day 64): 68%; Inhibition of Factor 11 protein relative to the PBS control (Factor 11 protein; day 71): 71%; Inhibition of Factor 11 protein relative to the PBS control (Factor 11 protein; day 78): 73%; Inhibition of Factor 11 protein relative to the PBS control (Factor 11 protein; day 85): 78%; Inhibition of Factor 11 protein relative to the PBS control (Factor 11 protein; day −5): 0%; Inhibition of Factor 11 protein relative to the PBS control (Factor 11 protein; day −14): 0%
